From patent publication US20050025769A1, “Method of suppressing ongoing acute allograft rejection” (Fujisawa Pharmaceutical Company, Ltd., priority 1999, published 2005)

Legend:
[1] = system: heart allografts, ongoing graft rejection; test: Rescue of ongoing heart allograft rejection (drug from day 5 for 10 days); format: in vivo, rat; details: 3.2 mg/kg/day on days 5-14 post-transplantation
Text: (§1) Inbred male Lewis rats (LEW) (RT1^1), weighing 200-250 g, were used as heart transplantation recipients. Inbred male LEW and inbred male Brown Norway (BN) (RT1^a), weighing 150-200 g, were used as isograft and allograft donor rats, respectively. […] Rejection of heart grafts was defined as the complete cessation of impulse and was confirmed visually after laparatomy. […] Control isograft and allograft recipients (5 rats each) received no immunosuppressant drugs after transplantation.
Therefore, drug administration was halted from day 0-day 4 after heart transplantation in order to initiate the transplantation process.

liver transplantation = details: clinical organ transplantation, estimated; cited from earlier work
[2] = system: T-cell-dependent antibody production, graft vs. host reactivity, delayed-type sensitivity reactions; details: suppressing T-cell-dependent antibody production; cited from earlier work
IL10 protein = test: ELISA assay of IL10 protein in serum peripheral lymphocytes of heart allograft recipients; format: in vivo, rat; details: day 7 post-transplantation, compared with the allograft control; optimal doses from day 5
Method: (§2) The transplantation method described in Example 5 was used. […] The levels of IL2, IL4 and IL10 proteins in serum peripheral lymphocytes were measured at day 7 post-transplantation by ELISA assay.

[3] = system: renal allografts (BN to LEW); test: Rescue of ongoing renal allograft rejection (drug from day 2 or day 4 for 13 days); format: in vivo, rat; details: untreated allograft controls rejected at day 8
Method: Male LEW rats weighing 250-350 g and male BN rats weighing 150-250 g were kept under specific pathogen-free conditions in the animal facility at Fujisawa Pharmaceutical Co., Ltd., Osaka, Japan. […] The donor ureter was directly implanted into the recipient bladder over a fine polyethylene internal stent. All recipients were bilaterally nephrectomized at the time of transplantation. The graft ischemic time was approximately 30 minutes. Survival of the kidney transplant was measured as time of rat survival. Graft rejection was confirmed by histological examination of kidney tissue from recipients with the observation of interstitial hemorrhage, tubular necrosis, venous endotheliatitis and diffuse lymphoplasmacytic infiltration indicating graft rejection. […] Control isograft and allograft recipients received either distilled water, olive oil, or placebo after transplantation.

[4] = system: heart allografts (BN to LEW); test: Rat heart transplantation, primary therapy to prevent acute allograft rejection (drug day 0 to day 10); format: in vivo; details: for median survival time (MST) of heart allografts: day 0 to day 10 after transplantation, allograft control 6 days
Text: as §1

[5] = system: CD4+, CD8+, NKR-P1A, and ED2 positive cells; test: Immunohistological examination of cell infiltration into heart allograft tissue; format: in vivo, rat; details: CsA 10 mg/kg/day, tacrolimus 3.2 mg/kg/day orally from day 5
Text: The presence of CD4+, CD8+, NKR-P1A, and ED2 positive cells was examined on day 5, 7 and 10 after transplantation by immunohistological examination of graft tissue immunostained with specific antibodies to various immune cell populations. For immunohistology, 4 μm frozen sections of heart tissue were cut, fixed with acetone and exposed to monoclonal antibodies (Pharmingen, San Diego, Calif.) against markers for CD4+ (helper T cells), CD8^+ (cytotoxic T cells), NKR-P1A (natural killer cells), and ED2 (macrophage cells) positive cells. Then the sections were incubated with peroxidase-conjugated anti-mouse IgG antibodies. The bound peroxidase was detected using 3-amino-9-ethylcarbazole. The results were scored quantitatively. In each tissue section, three random representative fields were counted by visual microscope (×40) to determine the average cell number per tissue.

IL2 and IL4 protein = test: ELISA assay of IL2 and IL4 proteins in serum peripheral lymphocytes of heart allograft recipients; format: in vivo, rat; details: day 7 post-transplantation; optimal doses from day 5
Method: as §2

IL10 mRNA = test: RT-PCR for IL10 mRNA in heart graft tissues; format: in vivo, rat; details: days 7 and 10; CsA 10 mg/kg/day, tacrolimus 3.2 mg/kg/day from day 5
Method: At day 5, 7 and 10 after transplantation, total RNA was extracted from heart graft tissues and tested by reverse transcriptase-polymerase chain reaction (RT-PCR) for cytokine mRNAs. Total RNA was extracted from transplanted heart tissue by TRIZOL (GIBCO BRL, Gaithersburg, Md.). RT-PCR was performed by reverse transcribing total RNA into cDNA using random hexamers (GIBCO BRL, Gaithersburg, Md.). The reverse-transcribed material was added to the PCR mixture with sense and anti-sense primers of IFNγ, IL2, IL4, IL10, IL1β, IL6, TNFα, TGFβ, Granzyme, Perforin or G3PDH and Taq DNA polymerase (Boehringer Mann heim GmbH, Mannheim, Germany). Amplification was performed with optimized cycles for each cytokine or G3PDH by ThermalCycler (Perkin-Elmer, Branchburg, N.J.). PCR product was applied to 2.3% agarose gel, resolved by electrophoresis, and visualized by ethidium bromide staining. The intensity of the gene-specific bands was obtained by the Gel Doc 1000 documentation system (BIO-RAD Laboratories, Hercules, Calif.). G3PDH mRNA was amplified as an internal control for RT-PCR.

allograft survival = details: optimal doses administered several days after transplantation, after allograft rejection has begun; cited from earlier work

C=CC[C@@H]1/C=C(\C)C[C@H](C)C[C@H](OC)[C@H]2O[C@@](O)(C(=O)C(=O)N3CCCC[C@H]3C(=O)O[C@H](/C(C)=C/[C@@H]3CC[C@@H](O)[C@H](OC)C3)[C@H](C)[C@@H](O)CC1=O)[C@H](C)C[C@@H]2OC [tacrolimus, Tacrolimus]
extension of the survival of the graft ([1]; versus allograft control): about 13 days
MST of heart allografts ([1]; allograft control 6 days): 19 days
potency relative to CsA in liver transplantation (liver transplantation): three to ten orders of magnitude more potent
potency relative to CsA in vivo [2]: 10 times
suppression of IL10 protein expression (IL10 protein): 73%
recipient rats that survived more than 50 days ([3]; 3.2 mg/kg/day from day 2-14 after grafting): all of 5
recipient rats that survived more than 50 days ([3]; 3.2 mg/kg/day from day 4-16 after grafting): 3 of 5
median survival time (MST) of heart allografts ([4]; 1.0 mg/kg/day orally): 12 days
median survival time (MST) of heart allografts ([4]; 3.2 mg/kg/day orally): 19 days
median survival time (MST) of heart allografts ([4]; 10 mg/kg/day orally): 21 days
optimal dose ([4]; primary therapy, oral, day 0 to day 10, based on MST): 3.2 mg/kg/day
suppression of all of the cell infiltration into the local graft tissues ([5]; day 7): no significant suppression
blocking CD8+ and NKR-P1A cell infiltration ([5]; day 10): significantly blocked
blocking the CD4+ and ED2 cell filtration ([5]; day 10): partially blocking
suppression of the expression of IL2 and IL4 protein (IL2 and IL4 protein): equally
suppression of IL10 mRNA expression (IL10 mRNA): more than CsA
effect on allograft survival (allograft survival): significantly increase allograft survival
